Source: PubChem BioAssay (NCI)
Where “and” joins values, the source holds several entries; their conditions need not be identical. Equal values may be shown once.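 Five compound concentrations were applied to cells in 96-well plates for 48 hours; endpoints were derived by simple linear interpolation of the resulting dose-response curve. The concentration for 50% growth inhibition is given as GI50. TGI denotes the concentration required for complete inhibition of growth.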

Key:
Assay in all cases: growth of human tumour cells (NCI), 48 h
[1] = system: CCRF-CEM leukemia
[2] = system: T-47D breast
[3] = system: OVCAR-5 ovarian
[4] = system: NCI-H226 lung
[5] = system: ACHN renal
[6] = system: 786-0 renal
[7] = system: RPMI-8226 leukemia
[8] = system: UACC-62 melanoma
[9] = system: SW-620 colon
[10] = system: OVCAR-3 ovarian

SMILES	GI50 [1]	TGI [1]	GI50 [2]	TGI [2]	GI50 [3]	TGI [3]	GI50 [4]	TGI [4]	GI50 [5]	TGI [5]	GI50 [6]	TGI [6]	GI50 [7]	TGI [7]	GI50 [8]	TGI [8]	GI50 [9]	TGI [9]	GI50 [10]	TGI [10]
Cc1ccc(S(=O)c2ccc([N+](=O)[O-])c3nonc23)cc1 (stereo unspecified)	2.3 µM	6.27 µM	2.04 µM	4.59 µM	9.5 µM	26.2 µM	15.7 µM	43.2 µM	1.92 µM	3.75 µM	13.2 µM	26.2 µM	3.62 µM	25.5 µM	7.25 µM	20.2 µM	2.18 µM	5 µM	2.23 µM	4.78 µM
CC(=O)c1c(Nc2ccc(F)c(F)c2F)[nH]c2c(F)cc(F)cc2c1=O	0.368 µM	> 100 µM	0.25 µM		0.552 µM	25.4 µM	0.297 µM	1.87 µM	0.296 µM	> 26.3 µM	0.368 µM	15.1 µM	0.206 µM	0.72 µM	0.233 µM	0.836 µM	0.346 µM	18.7 µM	0.311 µM	11.6 µM
COc1ccc2c(c1)c(-c1cc(-c3cn(C)c4ccc(OC)cc34)[nH]n1)cn2C	> 100 µM	> 100 µM	> 100 µM	> 100 µM	> 100 µM	> 100 µM	> 100 µM	> 100 µM	> 100 µM	> 100 µM	> 100 µM	> 100 µM	> 100 µM	> 100 µM	> 100 µM	> 100 µM	> 100 µM	> 100 µM	> 100 µM	> 100 µM
CCOC(=O)C(=Cc1c(-c2ccccc2)[nH]c2ccccc12)C(=O)OCC	2.58 µM	9.75 µM	2.62 µM	8.43 µM	13.4 µM	41.8 µM	11.3 µM	34.7 µM	4.34 µM	23.6 µM	11.7 µM	37.2 µM	0.219 µM	3.28 µM	4.64 µM	21.7 µM	5.57 µM	22.1 µM	4.21 µM	22.6 µM
Cc1cc2c(-c3nc4ccccn4c3NC34CC5CC(CC(C5)C3)C4)c(O)c(O)cc2c(O)c1-c1c(C)cc2c(-c3nc4ccccn4c3NC34CC5CC(CC(C5)C3)C4)c(O)c(O)cc2c1O	0.115 µM	> 25 µM	0.187 µM	2.49 µM	0.922 µM	> 25 µM	0.929 µM	5.98 µM	0.785 µM	2.88 µM	0.932 µM	5.09 µM	0.355 µM	> 25 µM	0.521 µM	1.91 µM	0.881 µM	> 25 µM	0.617 µM	8.3 µM
COc1ccc2nc3cc(Cl)ccc3c(Nc3ccc(O)c(CN4CCCC4)c3)c2c1	3.06 µM	14.6 µM	2.18 µM	6.46 µM	2.89 µM	7.62 µM	1.84 µM	3.75 µM	1.74 µM	3.18 µM	1.83 µM	3.5 µM	2.55 µM	6.41 µM	1.71 µM	3.51 µM	1.94 µM	6.19 µM	3.54 µM	15 µM
Cc1ccc(-c2cc(C(Cl)Cl)on2)cc1	40.9 µM	> 100 µM	35.3 µM	> 100 µM	> 100 µM	> 100 µM	48.2 µM	> 100 µM	33.5 µM	> 100 µM	60.3 µM	> 100 µM	33.8 µM	> 100 µM	66.8 µM	> 100 µM	67.5 µM	> 100 µM	51.8 µM	> 100 µM
O=C1c2c(O)ccc(O)c2C(=O)c2c(NCCNCCO)ccc(NCCNCCO)c21	0.0139 µM			1.05 µM and 0.652 µM and 1.5 µM		1.05 µM and 4.75 µM and 2.74 µM		0.0547 µM and 0.1 µM and 0.136 µM		0.123 µM and 0.783 µM and 0.229 µM		0.13 µM and 0.299 µM and 0.584 µM		1.15 µM and 6.39 µM and 3.55 µM		0.218 µM and 0.756 µM and 0.595 µM		1.91 µM and 1.62 µM and 1.77 µM	0.483 µM	1.87 µM and 1.47 µM and 2.13 µM
CNc1ccc(N=Nc2cccc3ncccc23)cc1	> 24 µM	> 100 µM	0.0346 µM	> 77.1 µM	0.0278 µM	> 100 µM	> 100 µM	> 100 µM	20.8 µM	> 100 µM	> 88.4 µM	> 100 µM	7.43 µM	> 65.6 µM	13.1 µM	> 100 µM	37.1 µM	> 100 µM		
COc1ccc(-c2nn(-c3cccc(Cl)c3)cc2-c2cc(-c3cccs3)no2)cc1	3.84 µM	> 100 µM	3.86 µM	25.3 µM	7.63 µM	74.1 µM	4.11 µM	30.3 µM	4.39 µM	> 100 µM	3.39 µM	> 100 µM	5.33 µM	61.9 µM	3.55 µM	20 µM	4.35 µM	22.6 µM	5.07 µM	25 µM
COc1ccc(-c2cn(-c3cc(OC)c(OC)c(OC)c3)c(=O)n2-c2ccccc2)cc1	> 100 µM	> 100 µM	27.3 µM	> 100 µM	> 100 µM	> 100 µM	> 100 µM	> 100 µM	> 100 µM	> 100 µM	38.9 µM	> 100 µM	> 100 µM	> 100 µM	53 µM	> 100 µM	> 100 µM	> 100 µM	43.1 µM	> 100 µM
CCCCCCCCCCCCCCCCCCNC(=O)[C@H]1CSC(c2ccc(F)c(OC)c2)N1 (stereo partly specified)	0.284 µM	1.74 µM	0.604 µM	1.46 µM	1 µM	1.91 µM	0.773 µM	1.58 µM	2.71 µM	> 50 µM	1.01 µM	1.91 µM	0.195 µM	0.826 µM	0.639 µM	1.28 µM	0.5 µM	1.54 µM		
